Laboratory results taken from patent US20230013435A1, “COMPOSITION FOR TREATING SYNUCLEINOPATHIES” (STANDIGM INC., priority 2019, published 2023).

Tested on: SH-SYSY cell line
Assay: Cytotoxicity, cell viability by MTT test
Format: cell-based
Conditions: SH-SYSY cells
Experimental: An SH-SYSY cell line (ATCC) was used to confirm the cytotoxicity of nevirapine. The SH-SYSY cell line was seeded in a 96-well plate, cultured, treated with an increasing concentration (0, 10, 100 μM) of nevirapine, and then incubated at a constant temperature for 24 hours. Thereafter, cell viability was measured using an MTT test method. Cells treated with 0 μM nevirapine were used as the control. ***P<0.001 against the control. Also, in the next experiment, the cytotoxicity of pirenzepine to be used as a reference drug was tested in the same manner as in the cytotoxicity experiment of nevirapine.

| SMILES | cell viability compared with the control (0.5 μM) | decrease in cell viability (10 μM) | cell viability compared with the control (10 μM, 24 hours) | decrease in cell viability (100 μM, 24 hours) |
| --- | --- | --- | --- | --- |
| CN1CCN(CC(=O)N2c3ccccc3C(=O)Nc3cccnc32)CC1 [pirenzepine] | slight decrease | approximately 60% | – | – |
| Cc1ccnc2c1NC(=O)c1cccnc1N2C1CC1 [nevirapine, 11-cyclopropyl-5,11-dihydro-4-methyl-6H-dipyrido[3,2-b:2′,3′-e][1,4]diazepin-6-one] | – | – | not changed significantly | approximately 70% |
